Reference: ChEMBL document CHEMBL5241055, “Angel or Devil ? - CDK8 as the new drug target” (Eur J Med Chem, 2021)
pIC50, pKd: −log10 of the molar value.

Tests used:
Heat shock protein HSP90 = Heat shock protein HSP90 (Homo sapiens, UniProt P07900+P08238); assay: Inhibition of HSP90 (unknown origin); assay type: protein assay
CDK8/Cyclin C = CDK8/Cyclin C (Homo sapiens, UniProt P49336); assay: Inhibition of CDK8/Cyclin C (unknown origin) using RBER-IRStide as substrate by radiometric assay; assay type: protein-complex assay
[1] = Antiproliferative activity against HUVEC cells assessed as inhibition of cell growth; assay type: toxicity, cell-based; conditions: human
[2] = biological target: T1, Cyclin-dependent kinase 8 (Homo sapiens, UniProt P49336); assay: Inhibition of CDK8 (unknown origin)
HCT-116 = assay: Anticancer activity against human HCT-116 cells assessed as inhibition of cell growth by SRB assay; assay type: functional, cell-based
[3] = biological target: T1, Cyclin-dependent kinase 8; assay: Binding affinity to CDK8 (unknown origin)

Sequence of CDK8/Cyclin C (P49336 whole entry): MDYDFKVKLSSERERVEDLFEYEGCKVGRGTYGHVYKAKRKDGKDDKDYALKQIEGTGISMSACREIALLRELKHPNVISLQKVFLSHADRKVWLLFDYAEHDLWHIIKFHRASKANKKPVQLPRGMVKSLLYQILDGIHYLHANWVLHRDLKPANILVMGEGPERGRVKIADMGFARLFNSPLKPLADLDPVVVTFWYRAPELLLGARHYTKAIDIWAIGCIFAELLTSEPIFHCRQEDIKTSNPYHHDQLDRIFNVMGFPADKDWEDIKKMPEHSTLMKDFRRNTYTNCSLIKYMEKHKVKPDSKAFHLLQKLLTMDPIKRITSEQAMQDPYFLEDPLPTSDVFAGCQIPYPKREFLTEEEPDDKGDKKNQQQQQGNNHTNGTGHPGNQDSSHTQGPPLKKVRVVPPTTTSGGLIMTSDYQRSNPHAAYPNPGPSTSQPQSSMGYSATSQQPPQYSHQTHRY
Sequence of CDK8/Cyclin C (P24863 whole entry, further chain): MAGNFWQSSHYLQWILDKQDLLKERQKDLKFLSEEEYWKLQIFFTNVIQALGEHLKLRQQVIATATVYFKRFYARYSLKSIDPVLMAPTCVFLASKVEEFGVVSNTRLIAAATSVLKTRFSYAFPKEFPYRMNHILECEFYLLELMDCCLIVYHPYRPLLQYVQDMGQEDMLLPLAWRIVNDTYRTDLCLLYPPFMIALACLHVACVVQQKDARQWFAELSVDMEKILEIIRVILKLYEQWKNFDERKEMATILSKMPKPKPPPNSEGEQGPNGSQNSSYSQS
T1 sequence (P49336 whole entry): as the sequence (P49336 whole entry) above

| SMILES | pIC50 [1] | further results |
| --- | --- | --- |
| CNC(=O)c1ccc2[nH]nc(Cc3ccc4c(cnn4C)c3)c2c1 | – | IC50 (Heat shock protein HSP90): > 10000 nM |
| N#Cc1ccc2ncnc(NCCc3ccccc3)c2c1 | – | pIC50 (CDK8/Cyclin C): 6.19 |
| CCCNc1ncnc2ccc(Br)cc12 | – | pIC50 (CDK8/Cyclin C): 5.21 |
| Cc1cnccc1/C=C/[C@@H](C)[C@H]1CC[C@@H]2[C@]1(C)CCC1=CC3=CC[C@@H](N(C)C)C[C@]34CC[C@@]12O4 | 6.10 | – |
| CN(C)[C@@H]1C=CC2=CC3=CC[C@]4(C)[C@@H](c5ccc6ccncc6c5)CC[C@H]4[C@@]34CC[C@]2(C1)O4 | 8.10 | – |
| CC1CN(C)CCC1CCC(C)[C@H]1CC[C@@H]2[C@]1(C)CC=C1C=C3C=C[C@@H](N(C)C)C[C@]34CC[C@@]12O4 (stereo partly specified) | 5.72 | – |
| Cc1cccc(Cc2n[nH]c3cc(O)c(C(=O)N4Cc5ccccc5C4)cc23)c1 | – | pIC50 [2]: 7.82; IC50 (Heat shock protein HSP90): 110 nM |
| CN(C)[C@H]1C[C@@]23CC[C@@]4(O2)C(=CC[C@@]2(C)[C@H]4CC(=O)[C@]2(O)c2ccc4ccncc4c2)C=C3[C@@H](O)[C@@H]1O | 6.82 | – |
| N#Cc1ccc2ncnc(NCCc3ccc4ccccc4c3)c2c1 | – | pIC50 (CDK8/Cyclin C): 6.13 |
| Cc1cnccc1CC[C@@H](C)[C@H]1CC[C@@H]2[C@]1(C)CCC1=CC3=CC[C@@H](N(C)C)C[C@]34CC[C@@]12O4 | 6.46 | – |
| CN(C)[C@H]1C[C@@]23CC[C@@]4(O2)C(=CC[C@@]2(C)[C@H]4C[C@H](O)[C@@H]2c2ccc4ccncc4c2)C=C3[C@@H](O)[C@@H]1O | 5.96 | – |
| COc1ccc(/C=N/c2ncc(-c3cc4ccccc4oc3=O)o2)cc1O | – | pIC50 (HCT-116): 4.14 |
| Cc1ccc(-n2nc(C(C)(C)C)cc2NC(N)=O)cc1 | – | pKd [3]: 5.49 |
| CC1CN(C)CCC1CC[C@@H](C)[C@H]1CC[C@@H]2[C@]1(C)CCC1=CC3=CC[C@@H](N(C)C)C[C@]34CC[C@@]12O4 (stereo partly specified) | 6.35 | – |
| CN(C)[C@H]1C[C@@]23CC[C@@]4(O2)C(=CC[C@]2(C)[C@@H](c5ccc6ccncc6c5)C(=O)C[C@H]24)C=C3[C@@H](O)[C@@H]1O | 7.72 | – |
